The values that follow come from ChEMBL document CHEMBL1201862, “PubChem BioAssay data set” (2004).

Among the test systems are 786-0; CAKI-1; CCRF-CEM; HCT-116; HOP-62; HOP-92; M14; NCI-H522; NCI/ADR-RES; OVCAR-5; PC-3; RXF 393; SF-539; SK-MEL-5; TK-10; UACC-257; NCI-H226; SN12C; UACC-62; SR.
What all share (assay): inhibition of tumour cell growth, NCI panel, 48 h

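Tested at 5 concentrations; 48 h exposure; 96-well plates; endpoints linearly interpolated, else capped at highest concentration. Abbreviation: GI50, concentration required for 50% inhibition of growth.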 Active and inactive are the calls of the source. Cut-off read from the data, not from the text of the source: active = GI50 up to about 1.1 µM and inactive = higher. Bounds are passed on as bounds.

Take `O=C(Cc1ccc(O)c(O)c1)NCc1c[nH]c2ccccc12`: the GI50 with 786-0 is 33.7 µM (inactive); in the assay with CAKI-1, 31.2 µM (inactive); in the assay on CCRF-CEM, 6.95 µM (inactive); in the assay with HCT-116, 32.4 µM (inactive); with HOP-62, 17.8 µM (inactive); in the assay with HOP-92, > 100 µM (inactive). Moreover, the GI50 was 35.5 µM (inactive) in the assay with M14; 32.6 µM (inactive) in the assay with NCI-H522; 46.6 µM (inactive) with NCI/ADR-RES; > 100 µM (inactive) with OVCAR-5; 47.1 µM (inactive) in the assay with PC-3; 29 µM (inactive) in the assay on RXF 393. The GI50 with SF-539 is 43.8 µM (inactive); with SK-MEL-5, 43.3 µM (inactive); with TK-10, 16.4 µM (inactive); in the assay with UACC-257 it was 70.5 µM (inactive).

For `Brc1ccc(/N=N/c2ccc3ccccc3n2)cc1`, the GI50 is 14.2 µM (inactive) with 786-0; 14.1 µM (inactive) in the assay with CAKI-1; > 100 µM (inactive) with CCRF-CEM; 12.9 µM (inactive) in the assay on HCT-116; 33.2 µM (inactive) in the assay with HOP-92; > 100 µM (inactive) in the assay with M14. Also, the GI50 with NCI-H226 was 10.6 µM (inactive); in the assay with NCI-H522 it was 0.0372 µM (active); in the assay on NCI/ADR-RES it was 33.3 µM (inactive); with OVCAR-5 it was 64.9 µM (inactive); with PC-3 it was 22 µM (inactive); with RXF 393, 28.2 µM (inactive). Moreover, the GI50 with SF-539 is 22.2 µM (inactive); with SK-MEL-5 it was 20.7 µM (inactive); in the assay with SN12C it was 40.4 µM (inactive); in the assay on TK-10 it was 28 µM (inactive); in the assay on UACC-257 it was 82.8 µM (inactive); in the assay with UACC-62, 15.6 µM (inactive).

As for `CN(CCN(C)Cc1ccc(Cl)c(Cl)c1)CCN1CCCC1`, the GI50 in the assay with 786-0 is 17.1 µM (inactive); in the assay on CAKI-1, 36 µM (inactive); with CCRF-CEM it was 3.72 µM (inactive); with HCT-116, 13.1 µM (inactive); with HOP-62, 22.1 µM (inactive); in the assay on HOP-92 it was 4.44 µM (inactive). Besides, the GI50 is 23.2 µM (inactive) in the assay on M14; 39.1 µM (inactive) in the assay on NCI-H226; 19.6 µM (inactive) in the assay on NCI-H522; 67.3 µM (inactive) in the assay on NCI/ADR-RES; 39.3 µM (inactive) in the assay with OVCAR-5; 32.5 µM (inactive) in the assay on PC-3. Further, the GI50 was 18.5 µM (inactive) with RXF 393; 19.6 µM (inactive) in the assay on SF-539; 14.9 µM (inactive) with SK-MEL-5; > 48 µM (inactive) in the assay on SN12C; 40 µM (inactive) in the assay with TK-10; 9.16 µM (inactive) in the assay with UACC-257. For the same compound, in the assay on UACC-62, the GI50 is 2.79 µM (inactive).

In the case of `OCC1OC(n2cnc3c(Cl)nc(Nc4ccccc4)nc32)CC1O` (configuration not stated), the GI50 in the assay on 786-0 is > 100 µM (inactive); in the assay with CAKI-1, 1.77 µM (inactive); in the assay with CCRF-CEM it was 26.1 µM (inactive); in the assay with HCT-116 it was > 100 µM (inactive); in the assay on HOP-62, > 100 µM (inactive); in the assay on HOP-92 it was 2.74 µM (inactive). Moreover, the GI50 in the assay with M14 was 60.1 µM (inactive); in the assay on NCI-H226, > 100 µM (inactive); in the assay on NCI-H522 it was 5.2 µM (inactive); in the assay with NCI/ADR-RES, > 100 µM (inactive); with OVCAR-5, > 100 µM (inactive); in the assay on PC-3 it was > 100 µM (inactive). Besides, the GI50 in the assay with RXF 393 is 57.1 µM (inactive); in the assay on SF-539, > 100 µM (inactive); in the assay on SK-MEL-5, > 100 µM (inactive); in the assay with SN12C it was > 100 µM (inactive); in the assay with TK-10 it was > 100 µM (inactive); with UACC-257, 59.3 µM (inactive). Moreover, the GI50 in the assay on UACC-62 is 40.5 µM (inactive).

On to `Cc1c(-c2nc(N)c(C#N)c(N)c2C#N)c(=O)oc2ccccc12`, for which the GI50 in the assay on 786-0 was 73.8 µM (inactive); in the assay on CAKI-1 it was > 100 µM (inactive); with CCRF-CEM, 69 µM (inactive); with HCT-116, 78.2 µM (inactive); in the assay on HOP-62 it was 67.3 µM (inactive); with HOP-92, > 100 µM (inactive). The GI50 in the assay with M14 was > 100 µM (inactive); in the assay with NCI-H226, > 100 µM (inactive); with NCI/ADR-RES, > 100 µM (inactive); with OVCAR-5, > 100 µM (inactive); with PC-3 it was 34.5 µM (inactive); in the assay with RXF 393 it was > 100 µM (inactive). Besides, the GI50 in the assay with SF-539 was > 100 µM (inactive); in the assay on SK-MEL-5, 87.5 µM (inactive); with SN12C, > 100 µM (inactive); in the assay on TK-10 it was > 100 µM (inactive); in the assay with UACC-257, > 100 µM (inactive); with UACC-62 it was > 100 µM (inactive).

`COC(=O)/C=C(\S/C(=C(/c1ccccc1)n1cc(C(=O)OC)c(C(=O)OC)n1)c1ccccc1)C(=O)OC`: the GI50 in the assay with 786-0 is 4.79 µM (inactive); in the assay with CAKI-1, 2.48 µM (inactive); in the assay on CCRF-CEM, 3.12 µM (inactive); in the assay with HCT-116 it was 12.1 µM (inactive); in the assay on HOP-62, 16 µM (inactive); in the assay on M14, 12.9 µM (inactive). Also, the GI50 in the assay on NCI-H226 is 89.1 µM (inactive); with NCI/ADR-RES, 28.4 µM (inactive); with OVCAR-5, 18.7 µM (inactive); in the assay with PC-3 it was 16.4 µM (inactive); in the assay on RXF 393 it was 13.6 µM (inactive); in the assay on SF-539, 15.8 µM (inactive). Besides, the GI50 in the assay on SK-MEL-5 was 19.3 µM (inactive); in the assay on SN12C it was 16.5 µM (inactive); in the assay on SR it was 11.6 µM (inactive); in the assay with TK-10, 2.86 µM (inactive); in the assay on UACC-257, 7.33 µM (inactive); in the assay on UACC-62 it was 30.5 µM (inactive).

In the case of `Cn1c(=O)sc2cc(C(=S)N3CCC(Cc4ccccc4)CC3)ccc21`, the GI50 in the assay with 786-0 was > 100 µM (inactive); with CAKI-1, 61.5 µM (inactive); with CCRF-CEM, 25.2 µM (inactive); in the assay on HCT-116, 45.9 µM (inactive); with HOP-62 it was > 100 µM (inactive); with M14, 33.3 µM (inactive). The GI50 was 15.3 µM (inactive) in the assay with NCI-H226; 21.4 µM (inactive) in the assay with NCI/ADR-RES; > 100 µM (inactive) in the assay with OVCAR-5; 37.9 µM (inactive) with PC-3; 21.6 µM (inactive) in the assay with RXF 393; > 100 µM (inactive) in the assay on SF-539. Further, the GI50 in the assay on SK-MEL-5 is 26.9 µM (inactive); in the assay with SN12C, > 100 µM (inactive); with SR, 17.7 µM (inactive); with TK-10 it was > 100 µM (inactive); with UACC-257 it was 38.3 µM (inactive); in the assay with UACC-62 it was 61.5 µM (inactive).

Consider `CC(C)[C@H](O)C(=O)N[C@H]1Cc2ccc3c(c2)[C@]24C5=C(N=C(O5)[C@H](C(C)C)NC1=O)c1nc(Cl)c(o1)-c1c(Cl)[nH]c5cccc(c15)-c1cccc2c1N[C@H]4O3`, for which the GI50 with 786-0 was 0.00535 µM (active); with CAKI-1, 0.0968 µM (active); in the assay on CCRF-CEM it was 0.00103 µM (active); in the assay on HCT-116 it was 0.00339 µM (active); in the assay on HOP-62, 2.33 µM (inactive); in the assay on HOP-92, 0.00693 µM (active). Further, the GI50 was 0.0311 µM (active) with M14; 0.00346 µM (active) with NCI-H226; 0.0022 µM (active) in the assay on NCI-H522; 0.257 µM (active) with NCI/ADR-RES; 0.0242 µM (active) with OVCAR-5; 0.00393 µM (active) in the assay on PC-3. The GI50 with SF-539 is 0.00403 µM (active); in the assay on SK-MEL-5 it was 0.0103 µM (active); with TK-10, 0.0818 µM (active); in the assay on UACC-257 it was 0.0229 µM (active).

Regarding `CNc1nnc(CCCCCCCCc2nnc(NC)o2)o1`, the GI50 with 786-0 was 21.1 µM (inactive); in the assay with CAKI-1 it was 14.8 µM (inactive); with CCRF-CEM it was 16.2 µM (inactive); in the assay on HCT-116, 20.3 µM (inactive); in the assay on HOP-62, 35.3 µM (inactive); in the assay with HOP-92 it was > 100 µM (inactive). For the same compound, the GI50 in the assay with M14, in the assay with NCI-H226, in the assay on NCI/ADR-RES, in the assay with OVCAR-5, with PC-3 and with RXF 393 was > 100 µM (inactive) throughout. The GI50 is > 100 µM (inactive) in the assay with SF-539; > 100 µM (inactive) in the assay on SK-MEL-5; > 100 µM (inactive) in the assay on SN12C; > 100 µM (inactive) in the assay on TK-10; 51.8 µM (inactive) with UACC-257.

As for `CC1CN(C)c2ccccc2N=C1NN` (configuration not stated), the GI50 in the assay on 786-0 is > 100 µM (inactive); in the assay with CAKI-1 it was > 100 µM (inactive); in the assay with CCRF-CEM, 87.5 µM (inactive); in the assay with HCT-116, > 100 µM (inactive); in the assay with HOP-62 it was > 100 µM (inactive); in the assay on M14, > 100 µM (inactive). Moreover, the GI50 was > 100 µM (inactive) in the assay on NCI-H226; > 100 µM (inactive) in the assay on NCI-H522; > 100 µM (inactive) in the assay with NCI/ADR-RES; > 100 µM (inactive) in the assay on OVCAR-5; > 100 µM (inactive) with PC-3; 0.217 µM (active) with RXF 393. The GI50 in the assay on SK-MEL-5, in the assay on SN12C, in the assay on TK-10, in the assay with UACC-257 and in the assay on UACC-62 was > 100 µM (inactive) throughout.

As for `Nn1nnc2ccccc21`, the GI50 in the assay with 786-0, in the assay with CCRF-CEM, with HCT-116, in the assay on HOP-62, with HOP-92 and in the assay on M14 was > 100 µM (inactive) in each case. Moreover, the GI50 in the assay on NCI-H226, with NCI/ADR-RES, in the assay on OVCAR-5, with PC-3, in the assay on SK-MEL-5 and in the assay with SN12C was > 100 µM (inactive) in each case. The GI50 with SR, in the assay on TK-10, in the assay with UACC-257 and in the assay with UACC-62 was > 100 µM (inactive) each time.
